This is an account of results in publication PMC8901748, “A novel prostaglandin E receptor 4 (EP4) small molecule antagonist induces articular cartilage regeneration” (Cell Discovery, 2022).

pIC50: −log10 of the molar value. Like-named read-outs stand apart in the source and are kept apart here.

One series concerns zebrafish embryos. In words: Zebrafish embryo toxicity assay. Further details: Mortality / Deformities / Hatching: dose or concentration left out as unconfirmed. The note with it: for Mortality: zebrafish embryos; for Deformities / Hatching: zebrafish.
In series [1] the test system is primary articular chondrocytes. Briefly: Cell viability by CCK-8 assay. The note with it: 72 h, read-out: IC50 (cell viability, toxicity in chondrocytes). The format is cell-based, mouse. As to the method: The cell viability was evaluated by CCK-8 assay (Dojindo Molecular Technologies). Primary chondrocytes were plated in the 96-well plates and treated with the EP4 antagonists or DMSO for 72 h. A total of 10 μl CCK-8 was added to each well, the cells were incubated in the presence of CCK-8 for 2–3 h. The optical density (OD) of each well at 450 nm was recorded on a Microplate Reader (SPECTRA MAX190). The absorbance values were normalized by subtracting blank values of […]. The cell viability (% of control) is calculated as the percentage of (ODtest − ODblank)/(ODcontrol − ODblank). The 50% inhibitory concentration (IC50) was calculated with GraphPad Prism software using the sigmoidal dose-response function.
(§1) ATDC5 cell line was purchased from Riken BioResource Center (Tsukuba, Japan) and grown in a 1:1 mixture of DMEM/F12 medium (Corning, 10-092-CVR) supplemented with 5% fetal bovine serum (Gibco, 10099, USA) and 1% penicillin-streptomycin solution (Life Technologies). Cells were maintained at 37 °C under 5% CO2. Primary chondrocytes were obtained from knee joint cartilage of newborn mice. Knee joints were dissected from the tibia plateau and femoral condyle articular cartilage of mouse pups and digested in 0.1% collagenase type II (Sigma) overnight at 37 °C and chondrocytes were harvested by centrifugation. Primary chondrocytes were cultured at a density of 5 × 10^3 cells per ml at 37 °C with 5% CO2. DMEM/F12 medium with 10% fetal bovine serum (FBS) and 1% penicillin–streptomycin was used to culture the primary chondrocytes. Chondrogenic differentiation were induced with chondrogenic medium, which contains insulin-transferrin-selenium (ITS) (Sigma, I3146), 10 ng/ml TGF-β3 (PEPROTECH, 100-36E, USA), 100 nM Dexamethasone (Sigma, D4902), 50 μg/ml VC (Sigma), 1 mM sodium pyruvate (Sigma) and 40 μg/ml proline (Sigma), and/or treatment with rmIL-1β (R&D, 401-ML/CF), TNFα (PEPROTECH, 300-01A-50) in DMEM/F12 for indicated days. Western blotting was performed according to standard protocols. Antibodies used were: rabbit anti-Mmp3 (1:1000, HuaBio), rabbit anti-Mmp13 (1:500, abcam, ab39012), rabbit anti-p-CREB (1:2000, Cell Signaling Technology, 87G3), rabbit anti-CREB (1:2000, Cell Signaling Technology, 48H2), mouse anti-GAPDH (1:5000; Sigma-Aldrich, G8795), rabbit anti-Col2 (Abcam, Ab34712), rabbit anti-STAT3 (1:2000; Abcam, ab68153), rabbit anti-p-STAT3 (Y705) (1:2000; Abcam, ab76315), rabbit anti -p65 (1:1000; CST, 3034), rabbit anti-p-p65 (1:1000; CST, 3033), and rabbit anti-IκBα (1:1000; Abways, CY5026).

Another series deals with CRE-Luc in ATDC5 cells. Briefly: CRE-Luc luciferase reporter assay. The note with it: 10 μM H89, 30 μM HL-43, 2 ng/ml IL-1β, 6 h. The format is cell-based, mouse. As for the experimental part: Six firefly luciferase reporters were used in the Luciferase assay, including CRE-Luc (PathDetect CRE cis-Reporting System; Stratagene, La Jolla CA) driven by a basic promoter (TATA box) plus four repeats of CRE; Sox9 promoter-Luc contains human SOX9 proximal promoter region (−1034 bp to +67 bp)[45]; 4 × 48-p89-Luc, mouse Col2a1 minimal promoter. AP-1-Luc, Nf-κb-Luc, STAT-Luc were obtained from Stratagene. Chondrocytes were cultured in 24-well plates and 300 ng firefly luciferase reporter constructs were transiently transfected using transfection reagent TransExellent-DNA (Cenji Biotech Inc, China) following manufacturer’s instruction, and 15 ng of the Copia-Renilla luciferase reporter was co-transfected as a normalization control. […] The Dual-Luciferase measurements were performed in triplicate using the Luciferase assay kit (Promega) and a LUMIstar Omega luminometer (BMG Labtech, Mornington, Australia).
(A reporter such as luciferase makes a cellular process visible.)

The test system of series [2] is Sox9 promoter-Luc in ATDC5 cells. In words: Sox9 promoter-Luc luciferase reporter assay. The series is classed as cell-based, mouse. To be noted: 10 μM H89, 30 μM HL-43, 6 h. As to the method:
Six firefly luciferase reporters were used in the Luciferase assay, including CRE-Luc (PathDetect CRE cis-Reporting System; Stratagene, La Jolla CA) driven by a basic promoter (TATA box) plus four repeats of CRE; Sox9 promoter-Luc contains human SOX9 proximal promoter region (−1034 bp to +67 bp)[45]; 4 × 48-p89-Luc, mouse Col2a1 minimal promoter. AP-1-Luc, Nf-κb-Luc, STAT-Luc were obtained from Stratagene. Chondrocytes were cultured in 24-well plates and 300 ng firefly luciferase reporter constructs were transiently transfected using transfection reagent TransExellent-DNA (Cenji Biotech Inc, China) following manufacturer’s instruction, and 15 ng of the Copia-Renilla luciferase reporter was co-transfected as a normalization control. Cells were treated with the indicated reagents for 48 h after transfection. The Dual-Luciferase measurements were performed in triplicate using the Luciferase assay kit (Promega) and a LUMIstar Omega luminometer (BMG Labtech, Mornington, Australia).

The test system of series [3] is Col2a1, Acan, Mmp3, Mmp9, Mmp13 expression in primary mouse chondrocytes. In words: qRT-PCR of anabolic and catabolic factors in primary chondrocytes. The series is classed as cell-based. To be noted: primary murine chondrocytes, 1 ng/ml IL-1β, 24 hr. As for the experimental part: as §1
Quantitative RT-PCR was performed to measure the relative mRNA levels. RNA samples were prepared from the chondrocytes using Trizol (Takara). cDNA was generated using the Prime Script RT reverse transcriptase kit (Yeasen, Drr036a). Primers used for amplification were shown in Supplementary Table S1, GAPDH was used as the house keeping gene.
A general note: In qPCR the cycle at which signal appears reflects the starting amount.

Series [4] is described as follows: Preliminary pharmacokinetic studies in CD1 mice. The format is in vivo. As for the experimental part: To evaluate the preclinical pharmacokinetic (PK) profiles of compound HL-43 and HL-66, 36 male CD1 mice were randomly divided into four groups for PK studies. […] Blood samples were collected at 0.083, 0.25, 0.5, 1, 2, 4, 8, 12, and 24 h after administration (n = 3). Then the whole blood was centrifuged at 5500 × g for 15 min at 4 °C. After suitable sample preparation, the concentration of HL-43 and HL-66 in plasma sample was determined by Agilent HPLC-MS/MS system (Agilent Technologies, USA). Pharmacokinetic parameters were calculated by WinNonlin software version 7.0 based on non-compartmental analysis (Pharsight Corporation, Mountain View, USA). Mean plasma concentration-time curves were plotted by GraphPad Prism 7.0 (GraphPad Software Inc., CA, USA).

Experimental for zebrafish embryos: A breeding stock of zebrafish at the age of 6–24 months is used for egg production. Fertilized eggs were collected and viable eggs were transferred to the 12-well plate at 26 °C. Fertilized eggs between the 4-cell and 128-cell stages be used for the toxicity test, with ten fertilized eggs per concentration and three replicates of each concentration, a total of 30 eggs for each concentration. […] DMSO was added as vehicle control. Hatching, morphological abnormalities and survival were assessed 24 and 72 h of post-fertilization (dpf) in zebrafish exposed to the chemicals.

Take `Cc1ccc(-c2cc(C(F)(F)F)nn2-c2ccc(S(N)(=O)=O)cc2)cc1` [Celecoxib]: the Mortality in the series with zebrafish embryos (24hpf, 0.03, n=30) is reported as 0/30; with zebrafish embryos (24hpf, 0.1, n=30), 7/30; in the series with zebrafish embryos (24hpf, 0.3, n=30), 12/30; in the series with zebrafish embryos (24hpf, 1, n=30), 18/30. The Deformities in the series on zebrafish embryos (72hpf, 0.03, n=30) is 4/30; in the series with zebrafish embryos (72hpf, 0.1, n=30), 3/30; in the series on zebrafish embryos (72hpf, 0.3, n=30) it was 7/30; in the series on zebrafish embryos (72hpf, 1, n=30), 2/30. In addition, the Hatching in the series on zebrafish embryos (72hpf, 0.03, n=30) was 12/30; in the series on zebrafish embryos (72hpf, 0.1, n=30), 8/30; in the series with zebrafish embryos (72hpf, 0.3, n=30), 13/30; with zebrafish embryos (72hpf, 1, n=30), 3/30. In series [1] (Mus musculus, Chondrocyte), the pIC50 (in general, the negative decadic logarithm of the IC50, by convention in mol/L) is 4.46.

With `O=S(=O)(NCCNC/C=C/c1ccc(Br)cc1)c1cccc2cnccc12` [H89, reference compound], in the series with CRE-Luc in ATDC5 cells, the “HL-43-induced CRE luciferase reporter activity” value was “completely abolished”. In addition, the “HL-43-induced Sox9 promoter luciferase reporter activity” value in series [2] is on record as “completely abolished”.

As to `Cc1ccc(-c2nnn(CCOc3ccc(F)cc3)c2C(=O)N[C@@H](C)c2ccc(C(=O)O)cc2)o1` [HL-66], the “Col2a1 expression (screen of EP4 antagonists)” value in series [3] (EP4 antagonists (2 nM)) is given as “highest potency in inducing Col2a1 expression”. Further, in series [3] (EP4 antagonists (30 μM)), the “Mmp3 expression (screen of EP4 antagonists)” value is “reducing Mmp3 expression”. In series [4] (I.V. (5 mg/kg)), the “AUC0-∞” value is 1236.5 ng·h/mL, the C0 is reported as 2557.7 ng/mL, the CL was 13 mL/min/kg and the Vd was 3.7 L/kg. In series [4] (I.V. (5 mg/kg)), this compound displayed a t1/2 of 3.2 h. In series [4] (P.O. (1 mg/kg)), the “AUC0-∞” value turned out to be 672.5 ng·h/mL; the CL worked out at 123 mL/min/kg; the Cmax (in general, the maximum level reached in the sampled fluid or tissue) is 286.0 ng/mL; the Vd came out at 26.7 L/kg. The compound also gave a t1/2 in series [4] (P.O. (1 mg/kg)) of 2.5 h. Besides, the Bioavailability in series [4] (oral) stood at 10.9%. Moreover, in series [1], the pIC50 is 3.48.
